Test results from patent US10144715B2, “Piperazine derivatives as liver X receptor modulators” (priority 2014, dated 2018).
Where two headings read alike, the source gives them in different places.

Assays:
[1] = biological target: T1, LXR α LBD protein (Homo sapiens (Human), UniProt Q13133); assay: LXR α radioligand binding assay (SPA, competition with [3H]TO901317); conditions: read-out: LXRα Binding Ki
[2] = biological target: T2, LXR β LBD protein (Homo sapiens (Human), UniProt P55055); assay: biochemical; type: binding
Target sequence in this assay (P55055 222-460 limits assumed): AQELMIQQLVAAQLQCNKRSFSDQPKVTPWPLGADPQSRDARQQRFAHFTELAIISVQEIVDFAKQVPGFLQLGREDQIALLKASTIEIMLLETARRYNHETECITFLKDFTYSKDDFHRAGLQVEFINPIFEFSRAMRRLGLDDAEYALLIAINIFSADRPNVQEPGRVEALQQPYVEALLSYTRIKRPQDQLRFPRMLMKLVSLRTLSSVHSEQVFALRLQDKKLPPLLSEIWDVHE

[3] = biological target: T3, Gal4 DNA binding domain fused to the LBD of LXRα in HEK293 cells (Homo sapiens (Human), UniProt Q13133); assay: LXR luciferase transcriptional reporter gene assay, agonist mode, LXRα; type: cell-based; conditions: for EC50: read-out: Cell LXRα EC50
[4] = biological target: T4, Gal4 DNA binding domain fused to the LBD of LXRβ in HEK293 cells (Homo sapiens (Human), UniProt P55055); assay: cell-based
[5] = biological target: T3, Gal4 DNA binding domain fused to the LBD of LXRα in HEK293 cells; assay: LXR luciferase transcriptional reporter gene assay, antagonist mode (200 nM T0901317), LXRα; type: cell-based; conditions: for IC50: read-out: Cell LXRα IC50
[6] = biological target: T4, Gal4 DNA binding domain fused to the LBD of LXRβ in HEK293 cells; assay: cell-based; type: cell-based
[7] = biological target: T1, LXR α LBD protein; assay: Human LXRα coactivator recruitment FRET assay, agonist mode; type: biochemical
Outline: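 LXRα- or LXRβ-LBD at 10 nM (2×) mixed with compound in DMSO, then fluorescein-SRC2-3 peptide 200 nM and Tb-anti-GST antibody 20 nM (4×) added; 2 h at rt. Time-resolved FRET read, 100 µs delay, 200 µs window; EC50 from four-parameter fit of percent control.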

[8] = biological target: T2, LXR β LBD protein; assay: biochemical; type: biochemical; conditions: for EC50: read-out: FRET LXRβ EC50
Target sequence in this assay (P55055 222-460): as the sequence (P55055 222-460 limits assumed) above

[9] = biological target: T1, LXR α LBD protein; conditions: antagonist mode, 250 nM T0901317, coactivator recruitment TR-FRET; for IC50: read-out: FRET LXRα IC50
Description: (§1) This assay is based on the ability of the LXR-LBDs (LXRα and LXRβ) to recruit and interact with a co-activator peptide.
(§2) Two μL of the DMSO solutions were transferred to the plate and 38 μL of 10 nM LXRα-LBD or LXRβ-LBD (2×) were added immediately to the wells. The plate was shaken for 5 min at rt on an orbital micro shaker (DPC MicroMix® 5), after which 40 μL of 200 nM fluorescein-SRC2-3 peptide and 20 nM Terbium-anti-GST-antibody (Cat# PV3550, Life Technologies, Grand Island, N.Y.) solution (4×) were added to all. The plate was sealed and shaken for 2 min at rt, and incubated at rt for 2 h without agitation. […] The delay and window times were set at 100 and 200 microseconds, respectively. […] The percent control vs. compound concentration data were fit into a four-parameter model, and EC50 values were calculated from the fit as the concentrations corresponding to the inflection points on the concentration-response curves.

[10] = biological target: T2, LXR β LBD protein; conditions: read-out: FRET LXRβ IC50
Target sequence in this assay (P55055 222-460): as the sequence (P55055 222-460 limits assumed) above
Description: as §1, §2

[11] = biological target: T2, LXR β LBD protein; assay: biochemical
Target sequence in this assay (P55055 222-460): as the sequence (P55055 222-460 limits assumed) above
Description: as §1, §2

[12] = tested on: LXRα-LBD or LXRβ-LBD; assay: Coactivator recruitment FRET assay, antagonist mode: agonist control signal (isoform not distinguished); type: biochemical, human; conditions: 250 nM T0901317, high TR-FRET signal in antagonist mode
Description: When this assay was carried out in “antagonist” mode, 250 nM T0901317 (full LXR agonist) was added to induce nearly maximal SRC2-3 recruitment.

[13] = agonist mode, read-out: Cell LXRβ EC50
[14] = antagonist mode, 200 nM T0901317, HEK293 reporter gene assay
[15] = antagonist mode, 200 nM T0901317, HEK293 reporter gene assay, read-out: Cell LXRβ IC50
[16] = Biological Test Example 1, read-out: LXRβ Binding Ki
[17] = Biological Test Example 2, agonist mode
[18] = Biological Test Example 3, agonist mode

T4 sequence (P55055 222-460 limits assumed): as above
T1 sequence (Q13133 209-447): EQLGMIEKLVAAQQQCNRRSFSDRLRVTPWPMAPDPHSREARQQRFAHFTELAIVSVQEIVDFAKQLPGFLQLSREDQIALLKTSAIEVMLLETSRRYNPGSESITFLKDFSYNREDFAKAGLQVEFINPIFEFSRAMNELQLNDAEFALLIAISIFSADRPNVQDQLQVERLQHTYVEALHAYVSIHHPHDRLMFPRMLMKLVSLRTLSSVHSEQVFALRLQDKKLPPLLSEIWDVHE
T3 sequence (Q13133 209-447): as above

Compound | Ki [1] [µM] | EC50 [3] [µM] | EC50 [4] [µM] | IC50 [5] [µM] | EC50 ([7]; agonist mode) [µM] | FRET LXRα efficacy ([7]; agonist mode) [%] | IC50 [9] [µM] | Cell LXRα efficacy [3] | also measured
Cc1ccc(CN2CCN(c3cccc(S(C)(=O)=O)c3)C[C@@H]2c2ccccc2)cc1 (single isomer, unassigned) [46-6] | 0.519 | > 20 | > 20 | 0.957 | > 50 |  |  |  | Ki ([2]; read-out: LXRβ Binding Ki): 0.063 µM; Cell LXRα efficacy [5]: 957 (105) %; Cell LXRβ efficacy [6]: 148 (106) %; IC50 [6]: 0.148 µM; EC50 [8]: > 50 µM
CS(=O)(=O)c1cccc(N2CCN(Cc3ccc(C(F)(F)F)cc3)[C@H](c3ccccc3)C2)c1 (single isomer, unassigned) [46-14] |  |  | > 20 |  | 14.2 | 37 | > 50 |  | EC50 ([3]; agonist mode): > 20 µM; FRET LXRβ efficacy [8]: 2742 (49) %; EC50 [8]: 2.74 µM; IC50 [10]: > 50 µM
CS(=O)(=O)c1cccc(N2CCN(C[C@H]3CC[C@@H](C(F)(F)F)CC3)[C@@H](c3ccccc3)C2)c1 (single isomer, unassigned) [48-31] | 0.042 | 0.254 |  | 6.71 | 0.401 | 56 |  | 254 (61) % | Ki ([2]; read-out: LXRβ Binding Ki): 0.005 µM; Cell LXRβ efficacy ([4]; agonist mode): 35%; EC50 [4, 13]: 0.095 µM; Cell LXRα efficacy [5]: 6705 (128) %; Cell LXRβ efficacy [6, 14]: 96%; IC50 [6, 15]: 0.436 µM; FRET LXRβ efficacy ([8]; agonist mode): 37%; EC50 ([8]; agonist mode): 0.022 µM
CS(=O)(=O)c1cccc(N2CCN(C[C@@H]3CCN(CC(F)(F)F)C3)[C@@H](c3ccccc3)C2)c1 (single isomer, unassigned) [48-61] | 1.42 |  | 0.467 |  |  |  |  | 2312 (23) % | Ki [2, 16]: 0.417 µM; EC50 [3, 17]: 2.31 µM; Cell LXRβ efficacy [4, 17]: 467 (5) %; Cell LXRα efficacy [5]: 870 (56) %; IC50 [5, 14]: 0.87 µM; IC50 [6]: 0.118 µM; Cell LXRβ efficacy [6, 14]: 118 (72) %; EC50 [7, 18]: 0.347 µM; FRET LXRα efficacy [7, 18]: 26%; FRET LXRβ efficacy [8, 18]: 112 (23) %; EC50 [8]: 0.112 µM
CC(C)[C@@H]1CN(c2cccc(S(C)(=O)=O)c2)CCN1C(=O)OC(C)(C)C [1-1, tert-butyl (R)-2-isopropyl-4-(3-(methylsulfonyl)phenyl)piperazine-1-carboxylate] | 1.69 | 2.78 | 0.467 | > 10 | 0.409 | 60 |  | 2778 (44) % | Ki ([2]; read-out: LXRβ Binding Ki): 0.157 µM; Cell LXRβ efficacy ([4]; agonist mode): 467 (34) %; IC50 [6]: 2 µM; Cell LXRβ efficacy [6, 14]: 1996 (45) %; FRET LXRβ efficacy ([8]; agonist mode): 88%; EC50 ([8]; agonist mode): 0.015 µM
CC(C)[C@H]1CN(c2cccc(S(C)(=O)=O)c2)CCN1C(=O)OC(C)(C)C [2-2, tert-butyl (S)-2-isopropyl-4-(3-(methylsulfonyl)phenyl)piperazine-1-carboxylate] | > 3.33 |  | > 20 |  | 23.2 | 82 |  |  | Ki [2]: 1.93 µM; EC50 ([3]; agonist mode): > 20 µM; IC50 [11]: > 50 µM
CC(C)c1ccc(CN2CCN(c3cccc(S(C)(=O)=O)c3)C[C@@H]2c2ccccc2)cc1 [46-8, (S)-1-(4-isopropylbenzyl)-4-(3-(methylsulfonyl)phenyl)-2-phenylpiperazine] | 1.72 | 3.2 | 1.36 | 8.9 | 0.468 | 15 |  | 3200 (22) % | Ki ([2]; read-out: LXRβ Binding Ki): 0.227 µM; Cell LXRβ efficacy [4]: 1358 (18) %; Cell LXRα efficacy [5]: 8904 (282) %; Cell LXRβ efficacy [6]: 1421 (96) %; IC50 [6]: 1.42 µM; EC50 [8]: > 50 µM
CS(=O)(=O)c1ccc(F)c(N2CCN(Cc3ccc(C(F)(F)F)nc3)C(c3ccccc3)C2)c1 (stereo not drawn) [46-50, 4-(2-fluoro-5-(methylsulfonyl)phenyl)-2-phenyl-1-((6-(trifluoromethyl)pyridin-3-yl)methyl)piperazine] |  |  |  |  |  |  |  |  | FRET LXRα efficacy [9]: 102%
CS(=O)(=O)c1cccc(N2CCN(Cc3ccc(C(F)(F)F)nc3)C(c3cccc(Cl)c3)C2)c1 (stereo not drawn) [46-55, 2-(3-chlorophenyl)-4-(3-(methylsulfonyl)phenyl)-1-((6-(trifluoromethyl)pyridin-3-yl)methyl)piperazine] |  |  |  |  | 6.54 | 25 | > 50 | 2773 (7) % | EC50 ([3]; agonist mode): 2.77 µM
Cc1cccc(C2CN(c3cccc(S(C)(=O)=O)c3)CCN2Cc2ccc(C(F)(F)F)nc2)c1 (stereo not drawn) [46-62, 4-(3-(methylsulfonyl)phenyl)-2-(m-tolyl)-1-((6-(trifluoromethyl)pyridin-3-yl)methyl)piperazine] |  | > 20 |  |  | 7.77 | 32 | > 50 |  | 
CS(=O)(=O)c1cc(N2CCN(C[C@H]3CC[C@@H](C(F)(F)F)CC3)[C@@H](c3ccc(F)cc3)C2)ccc1F [48-48, (S)-4-(4-fluoro-3-(methylsulfonyl)phenyl)-2-(4-fluorophenyl)-1-(((1s,4R)-4-(trifluoromethyl)cyclohexyl)methyl)piperazine] | 0.156 | 0.46 |  | > 10 |  |  |  | 460 (53) % | Ki [2, 16]: 0.023 µM; Cell LXRβ efficacy [4, 17]: 31%; EC50 ([4]; Biological Test Example 2, agonist mode, read-out: Cell LXRβ EC50): 0.112 µM; Cell LXRβ efficacy [6, 14]: 52%; IC50 [6, 15]: 2.69 µM; EC50 [7, 18]: 1.32 µM; FRET LXRα efficacy [7, 18]: 42%; FRET LXRβ efficacy [8, 18]: 40%; EC50 [8, 18]: 0.142 µM
CS(=O)(=O)c1cc(N2CCN(Cc3ccc(C(F)(F)F)nc3)C(c3ccccc3)C2)ccc1CO (stereo not drawn) [Cpd No 47-1, (2-(methylsulfonyl)-4-(3-phenyl-4-((6-(trifluoromethyl)pyridin-3-yl)methyl)piperazin-1-yl)phenyl)methanol] |  |  |  |  | 2.02 | 76 | > 50 | 8405 (46) % | EC50 ([3]; agonist mode): 8.4 µM
O=S(=O)(c1ccccc1)N(CC(F)(F)F)c1ccc(C(O)(C(F)(F)F)C(F)(F)F)cc1 [TO901317] |  |  |  |  |  |  |  |  | SRC2-3 recruitment [12]: ~75%
tert-butyl 4-(3-(methylsulfonyl)phenyl)-2-phenylpiperazine-1-carboxylate [1-5] |  | 4.3 |  |  | 4.1 | 63 | > 50 | 4297 (17) % | Cell LXRβ efficacy ([4]; agonist mode): 21%; EC50 [4, 13]: 0.898 µM; FRET LXRβ efficacy ([8]; agonist mode): 78%; EC50 ([8]; agonist mode): 0.227 µM; IC50 ([10]; antagonist mode, 250 nM T0901317, coactivator recruitment TR-FRET): > 50 µM
tert-butyl (S)-2-benzyl-4-(3-(methylsulfonyl)phenyl)piperazine-1-carboxylate [1-7] |  | 2.55 |  |  | 11.9 | 33 | > 50 | 2550 (8) % | 
